Assay results from ChEMBL document CHEMBL1201862, “PubChem BioAssay data set” (2004).
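1) Cells in 96-well plates. 2) Compound, 48 h, 5 concentrations. 3) Linear interpolation between surrounding doses. 4) Unreached endpoint = highest concentration. GI50 marks 50% less growth.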 Active and inactive are the calls of the source. Cut-off read from the data, not from the text of the source: active = GI50 up to about 1.1 µM and inactive = higher.

Tests used:
Experiment in all cases: growth of human tumour cells (NCI), 48 h
786-0 = tested on: 786-0
A549 = tested on: A549
HL-60 = tested on: HL-60
HOP-92 = tested on: HOP-92
K562 = tested on: K562
LXFL 529 = tested on: LXFL 529
M14 = tested on: M14
MOLT-4 = tested on: MOLT-4
OVCAR-4 = tested on: OVCAR-4
SF-295 = tested on: SF-295
SF-539 = tested on: SF-539
SK-MEL-28 = tested on: SK-MEL-28
SK-MEL-2 = tested on: SK-MEL-2
SN12C = tested on: SN12C
SNB-19 = tested on: SNB-19
TK-10 = tested on: TK-10
UO-31 = tested on: UO-31
MCF7 = tested on: MCF7
MDA-N = tested on: MDA-N
T47D = tested on: T47D

Structure (SMILES)	GI50 (786-0)	GI50 (A549)	GI50 (HL-60)	GI50 (HOP-92)	GI50 (K562)	GI50 (LXFL 529)	GI50 (M14)	GI50 (MOLT-4)	GI50 (OVCAR-4)	GI50 (SF-295)	GI50 (SF-539)	GI50 (SK-MEL-28)	GI50 (SK-MEL-2)	GI50 (SN12C)	GI50 (SNB-19)	GI50 (TK-10)	GI50 (UO-31)	GI50 (MCF7)	GI50 (MDA-N)	GI50 (T47D)
O=C(/C(=C\c1ccccc1)CN1CCOCC1)c1ccc(Br)cc1	1.57 µM (inactive)	6.64 µM (inactive)	1.5 µM (inactive)	5.47 µM (inactive)	1.15 µM (inactive)	1.28 µM (inactive)	1.78 µM (inactive)	2.33 µM (inactive)	2.77 µM (inactive)	5.97 µM (inactive)	2.12 µM (inactive)	1.76 µM (inactive)	1.92 µM (inactive)	2.06 µM (inactive)	5.79 µM (inactive)	5.37 µM (inactive)	1.8 µM (inactive)			
O=CN/C=C/c1cccc(O)c1	54 µM (inactive)	54.5 µM (inactive)	38.5 µM (inactive)	55.2 µM (inactive)	> 75.7 µM (inactive)	> 100 µM (inactive)	61.9 µM (inactive)	59.8 µM (inactive)	61.4 µM (inactive)	48.8 µM (inactive)	57.3 µM (inactive)	> 84.1 µM (inactive)	58.7 µM (inactive)	56.2 µM (inactive)	70.1 µM (inactive)	88.3 µM (inactive)	54.2 µM (inactive)	> 34 µM (inactive)	46 µM (inactive)	63.4 µM (inactive)
COc1cc2c(oc(=O)c3c4occc4cc(OC)c23)c2cccc(OCc3ccccc3)c12	41.4 µM (inactive)	> 100 µM (inactive)	65.8 µM (inactive)	> 100 µM (inactive)	> 100 µM (inactive)	64.7 µM (inactive)	80.2 µM (inactive)	> 100 µM (inactive)	44.4 µM (inactive)	88.9 µM (inactive)	> 100 µM (inactive)	49.4 µM (inactive)	> 100 µM (inactive)	> 100 µM (inactive)	> 100 µM (inactive)	> 100 µM (inactive)	> 100 µM (inactive)			
C=CCN(N=O)C(=O)NCCCCC(NC(C)=O)C(=O)NCc1ccccc1 (configuration not stated)	> 100 µM (inactive)	> 100 µM (inactive)	> 100 µM (inactive)	> 100 µM (inactive)	> 100 µM (inactive)	> 100 µM (inactive)	> 100 µM (inactive)	> 100 µM (inactive)	> 100 µM (inactive)	> 100 µM (inactive)	> 100 µM (inactive)	> 100 µM (inactive)	72.6 µM (inactive)	> 100 µM (inactive)	> 100 µM (inactive)	> 100 µM (inactive)	> 100 µM (inactive)			
COC(=O)CCC(NC(=S)N/N=C(\C)c1ccc[nH]1)C(=O)OC (configuration not stated)	> 100 µM (inactive)	> 100 µM (inactive)	> 100 µM (inactive)	> 100 µM (inactive)	> 100 µM (inactive)	> 100 µM (inactive)	> 100 µM (inactive)	> 100 µM (inactive)	> 100 µM (inactive)	> 100 µM (inactive)	> 100 µM (inactive)	> 100 µM (inactive)	> 100 µM (inactive)	> 100 µM (inactive)	> 100 µM (inactive)	> 100 µM (inactive)	> 100 µM (inactive)			
COc1ccc(CCN2CCC(C#N)(c3ccc(OC)c(OC)c3)CC2)cc1OC	> 100 µM (inactive)	> 100 µM (inactive)	> 100 µM (inactive)	13.5 µM (inactive)	> 100 µM (inactive)	> 100 µM (inactive)	> 100 µM (inactive)	> 100 µM (inactive)	> 100 µM (inactive)	79.6 µM (inactive)	> 100 µM (inactive)	> 100 µM (inactive)	> 100 µM (inactive)	> 100 µM (inactive)	> 100 µM (inactive)	76.2 µM (inactive)	> 100 µM (inactive)			
NC(=S)N1N=C2c3ccccc3CC[C@H]2[C@@H]1c1ccc(Cl)cc1	30.6 µM (inactive)	30 µM (inactive)	17.6 µM (inactive)	22.3 µM (inactive)	19.5 µM (inactive)	21.2 µM (inactive)	28.2 µM (inactive)	18.9 µM (inactive)	30.8 µM (inactive)	26.7 µM (inactive)	41.7 µM (inactive)	40.8 µM (inactive)	22.3 µM (inactive)	30.6 µM (inactive)	47.4 µM (inactive)	45.7 µM (inactive)	20.8 µM (inactive)			
N#CC(C(=O)CCC(=O)Nc1cccc(Cl)c1)c1ccccc1 (configuration not stated)	> 100 µM (inactive)	> 100 µM (inactive)	> 100 µM (inactive)	> 100 µM (inactive)	> 100 µM (inactive)	> 100 µM (inactive)	> 100 µM (inactive)	> 100 µM (inactive)	> 100 µM (inactive)	> 100 µM (inactive)	> 100 µM (inactive)	> 100 µM (inactive)	> 100 µM (inactive)	> 100 µM (inactive)	4.05 µM (inactive)	> 100 µM (inactive)	> 100 µM (inactive)			
NC(=O)c1cc(N2CC2)c([N+](=O)[O-])cc1[N+](=O)[O-] [TRETAZICAR]	> 100 µM (inactive)	> 184 µM (inactive)	> 100 µM (inactive)	> 100 µM (inactive)	> 100 µM (inactive)	> 100 µM (inactive)	> 100 µM (inactive)	> 63.2 µM (inactive)	> 100 µM (inactive)	> 100 µM (inactive)	> 100 µM (inactive)	> 200 µM (inactive)	> 20 µM (inactive)	> 100 µM (inactive)	> 100 µM (inactive)	> 200 µM (inactive)	> 100 µM (inactive)	> 63.2 µM (inactive)	> 200 µM (inactive)	> 200 µM (inactive)
C=C(CN(C)C)C(=O)c1cc(C)ccc1C	2.96 µM (inactive)	19.7 µM (inactive)	0.232 µM (active)	2.81 µM (inactive)	0.791 µM (active)	1.62 µM (inactive)	2.11 µM (inactive)	0.371 µM (active)	9.75 µM (inactive)	16.7 µM (inactive)	8.91 µM (inactive)	9.1 µM (inactive)	16.9 µM (inactive)	15.6 µM (inactive)	19.9 µM (inactive)	8.95 µM (inactive)	6.87 µM (inactive)	2.96 µM (inactive)	6.84 µM (inactive)	4.11 µM (inactive)
COc1ccc(/C=C2/C(=O)N(C(=O)c3ccccc3O)N=C2C)cc1OC	1.26 µM (inactive)	0.33 µM (active)	0.687 µM (active)	0.326 µM (active)		0.303 µM (active)	0.927 µM (active)	21.2 µM (inactive)	2.44 µM (inactive)	0.365 µM (active)	0.241 µM (active)	23.9 µM (inactive)	0.605 µM (active)	2.42 µM (inactive)		10.8 µM (inactive)	0.202 µM (active)	0.361 µM (active)	0.489 µM (active)	
CCCCN[C@H]1C2C3CC4C5CC(C42)C1(C)C53 (some centres not stated)	> 100 µM (inactive)	> 100 µM (inactive)	> 100 µM (inactive)	> 100 µM (inactive)	> 100 µM (inactive)	> 100 µM (inactive)	> 100 µM (inactive)	> 100 µM (inactive)	> 100 µM (inactive)	> 100 µM (inactive)	> 100 µM (inactive)	> 100 µM (inactive)	> 100 µM (inactive)	> 100 µM (inactive)	> 100 µM (inactive)	> 100 µM (inactive)	> 100 µM (inactive)			
Cc1ccc(C)c(NC(=O)C(=O)C2C(=O)N(c3ccccc3)N=C2N)c1 (configuration not stated)	> 100 µM (inactive)	> 100 µM (inactive)	31.7 µM (inactive)	> 100 µM (inactive)	90.2 µM (inactive)	> 100 µM (inactive)	> 100 µM (inactive)	> 100 µM (inactive)	> 100 µM (inactive)	> 100 µM (inactive)	> 100 µM (inactive)	> 100 µM (inactive)	> 100 µM (inactive)	> 100 µM (inactive)	> 100 µM (inactive)	> 100 µM (inactive)	> 100 µM (inactive)			
COc1ccc(C2=C(Cl)c3cc(OC)c(OC)cc3C2OC)cc1OC (configuration not stated)	11.2 µM (inactive)	> 100 µM (inactive)	8.11 µM (inactive)	> 100 µM (inactive)	5.74 µM (inactive)	52.7 µM (inactive)	> 100 µM (inactive)	> 100 µM (inactive)	> 100 µM (inactive)	> 100 µM (inactive)	65.2 µM (inactive)	> 100 µM (inactive)	> 100 µM (inactive)	> 100 µM (inactive)	> 100 µM (inactive)	> 100 µM (inactive)	> 100 µM (inactive)			
